Laboratory results: patent US7335665B2, “Spirocyclic piperidines as MCH1 antagonists and uses thereof” (H - Lundbeck A/S, priority 2003, dated 2008)
Read-outs that look alike come from different tables or passages of the source.

What was measured:
MCH-1 receptor [1] = target: T1, MCH-1 receptor (Rattus norvegicus, UniProt P97639); settings: in vivo; cited from earlier work
T1 construct: host or cells: in vivo, endogenous receptor of the animal

MCH-1 receptor [2] = settings: rat and human MCH-1; cited from earlier work
G4F-7 cells = settings: cited from earlier work
rat MCH1 receptor = target: T2, rat MCH1 receptor (Rattus norvegicus, UniProt P97639); test: Radioligand binding assay at cloned rat MCH1 receptor ([3H]Compound A displacement); settings: cloned rat MCH1, membranes of transfected Peakr293 cells, 0.08 nM [3H]Compound A, 25° C., 90 minutes
T2 construct: expressed in transfected cells; host or cells: Human embryonic kidney Peak rapid 293 cells (Peakr293), transient, calcium phosphate; membranes
T2 sequence (P97639 whole entry): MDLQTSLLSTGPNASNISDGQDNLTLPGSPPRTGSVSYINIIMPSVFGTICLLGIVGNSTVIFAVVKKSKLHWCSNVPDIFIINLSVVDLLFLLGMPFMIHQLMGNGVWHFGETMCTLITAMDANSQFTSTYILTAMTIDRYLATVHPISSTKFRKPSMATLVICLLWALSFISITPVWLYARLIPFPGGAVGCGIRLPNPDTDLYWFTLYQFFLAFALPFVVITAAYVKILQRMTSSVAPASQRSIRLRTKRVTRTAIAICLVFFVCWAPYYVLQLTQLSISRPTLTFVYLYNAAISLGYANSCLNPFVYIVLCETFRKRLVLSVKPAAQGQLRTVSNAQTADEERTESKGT
Outline: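 Membranes from Peakr293 cells transiently transfected with rat MCH1 receptor were incubated with 0.08 nM [3H]Compound A in 50 mM Tris pH 7.4, 10 mM MgCl2, PMSF, 1,10-phenanthroline and 0.2% BSA, 90 min at 25° C. Bound ligand was collected by filtration; nonspecific binding was defined with […] Compound A.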

T1 sequence (P97639 whole entry): as above

CN(C)CC1CCc2cc(NC(=O)c3ccc(-c4ccc(F)cc4)cc3)ccc2C1 (stereo not drawn) [Example T-226296]
food intake induced by the intracerebroventricular application of MCH (MCH-1 receptor [1]): inhibit food intake
affinity for the MCH-1 receptor (MCH-1 receptor [2]): 5 to 9 nM

[Phe^13,Tyr^19]-MCH
Kd (G4F-7 cells; radioiodinated ligand, G4F-7 mouse melanoma cells): 0.118 nM

native MCH: Melanin-concentrating hormone, cyclic peptide
Ki (G4F-7 cells; inhibition of radioiodinated [Phe13,Tyr19]-MCH binding): 12 nM

Cc1ccc(C2(C(=O)NCCCN3CCC4(CC3)OCc3ccccc34)CCCC2)cc1 [Example 75, [(4-METHYL)PHENYL)CYCLOPENTYL]-N-(3-(SPIRO[1,3-DIHYDROISOBENZOFURAN-1,4′-PIPERIDINE]-10-YL)PROPYL)CARBOXAMIDE]
Ki (rat MCH1 receptor; read-out: KI): 700 nM

O=C(NCCCN1CCC2(CCc3ccccc32)CC1)C1(c2ccc(Cl)cc2)CCCCC1 [Example 53, 1-[(4-CHLOROPHENYL)CYCLOHEXYL]-N-(3-(SPIRO[INDANE-1,4′-PIPERIDINE]-10-YL)PROPYL)CARBOXAMIDE]
Ki (rat MCH1 receptor; read-out: KI): 56.9 nM

O=C(NCCCCN1CCC2(CCc3ccccc32)CC1)Nc1cc(Cl)cc(Cl)c1 [Example 26, N-(3,5-DICHLOROPHENYL)[(4-SPIRO[INDANE-1,4′-PIPERIDINE]-10-YLBUTYL)AMINO]CARBOXAMIDE]
Ki (rat MCH1 receptor; KI): 512 nM

O=C(NCCCN1CCC2(CC1)OCc1ccccc12)C1(c2ccc(Cl)cc2)CCCC1 [Example 85, [(4-CHLOROPHENYL)CYCLOPENTYL]-N-(3-(SPIRO[1,3-DIHYDROISOBENZOFURAN-1,4′-PIPERIDINE]-10-YL)PROPYL)CARBOXAMIDE]
Ki (rat MCH1 receptor; read-out: KI): 183 nM

O=C(NCCN1CCC2(CCc3ccccc32)CC1)c1cccc2ccccc12 [Example 42, NAPHTHYL-N-(2-(SPIRO[INDANE-1,4′-PIPERIDINE]-10-YLETHYL)CARBOXAMIDE]
Ki (rat MCH1 receptor; KI): 545 nM
